Measurements taken from US20250197864A1, “LNCRNA TRANSCRIPTS IN MELANOMAGENESIS” (The Regents of the University of California, priority 2021, published 2025).

What was measured:
melanoma cell lines = test: Cell viability assay (ATP quantitation), melanoma panel; type: cell-based, human; conditions: 50 nM oligonucleotide, 72 hours, vs non-targeting pooled siRNA
From the text: Human melanoma cell line VMM39 was purchased from American Type Culture Collection (ATCC). Human melanoma cell lines D04, MM415, WM1366, WM3629, WM3211, Sk-Mel-2 and Sk-Mel-28 were a generous gift from Boris Bastian at the University of California, San Francisco. Primary human melanoma cell line Hs852.T was purchased from the Cell Culture Core Facility (CCCF) at the University of California, San Francisco. Primary human melanoma cell line AV5 was obtained from metastasis of a melanoma patient. All experimental protocols were approved by UCSF Human Research Protection Program Institutional Review Board (IRB #12-0948), all patients signed informed consent, and methods were carried out in accordance with relevant guidelines and regulations. Resistant cell lines DO4RM, MM415RM, Sk-Mel-2RM and WM3629RM were established as previously described. [Sanlorenzo, M. et al., The lincRNA MIRAT binds to IQGAPI and modulates the MAPK pathway in NRAS mutant melanoma. Sci Rep 8, 10902 (2018).] Primary human melanocytic cell lines (PHM) from infant foreskin of five healthy donors were available in our cell repository and pooled. […]
Dependent on cell doubling time, 0.7-2×10^^3 cells were seeded in 96 well plates. […] 3 (synergy experiments) or 5 (solely ASO) days after transfection Total luminescence was measured on the SynergyHT plate reader (BioTek) using Gen5 software.

D04 melanoma cell line = test: Cell viability assay (ATP quantitation); type: cell-based, human; conditions: 50 nM, 5 days (120 hrs), vs non-targeting control
Description: (§1) EsiRNA, siRNA and ASO GapmeRs were transfected in a final concentration of 50 nM unless mentioned otherwise and the transfection reagent Lipofectamine 3000 (2 ul/ml) was added according to the manufacturer's instructions.
(§2) Dependent on cell doubling time, 0.7-2×10^^3 cells were seeded in 96 well plates. 1 day after seeding cells were incubated in media with oligonucleotide concentration and/or MEKi and transfection reagent. 3 (synergy experiments) or 5 (solely ASO) days after transfection Total luminescence was measured on the SynergyHT plate reader (BioTek) using Gen5 software.

MM415 melanoma cell line = test: Cell viability assay (ATP quantitation); type: cell-based, human; conditions: 50 nM, 5 days (120 hrs), vs non-targeting control
Description: as §1, §2

[1] = system: D04RM trametinib resistant melanoma cell line; test: Cell viability assay (ATP quantitation); type: cell-based; conditions: 50 nM, 5 days, vs non-targeting control
From the text: (§3) Human melanoma cell line VMM39 was purchased from American Type Culture Collection (ATCC). Human melanoma cell lines D04, MM415, WM1366, WM3629, WM3211, Sk-Mel-2 and Sk-Mel-28 were a generous gift from Boris Bastian at the University of California, San Francisco. Primary human melanoma cell line Hs852.T was purchased from the Cell Culture Core Facility (CCCF) at the University of California, San Francisco. Primary human melanoma cell line AV5 was obtained from metastasis of a melanoma patient. All experimental protocols were approved by UCSF Human Research Protection Program Institutional Review Board (IRB #12-0948), all patients signed informed consent, and methods were carried out in accordance with relevant guidelines and regulations. Resistant cell lines DO4RM, MM415RM, Sk-Mel-2RM and WM3629RM were established as previously described. [Sanlorenzo, M. et al., The lincRNA MIRAT binds to IQGAPI and modulates the MAPK pathway in NRAS mutant melanoma. Sci Rep 8, 10902 (2018).] Primary human melanocytic cell lines (PHM) from infant foreskin of five healthy donors were available in our cell repository and pooled. Melanoma cell lines were maintained in RPMI 1640 media supplemented with 10% (vol/vol) heat inactivated fetal bovine serum. Melanocytes were maintained in M254 medium with HMGS supplements (1× final solution). All cell lines were incubated at 37° C. under 5% CO2.
as §1, §2

[2] = system: WM3629RM trametinib resistant melanoma cell line; test: Cell viability assay (ATP quantitation); type: cell-based; conditions: 50 nM, 5 days, vs non-targeting control
From the text: as §3, §1, §2

[3] = system: Sk-Mel-2-RM trametinib resistant melanoma cell line; test: Cell viability assay (ATP quantitation); type: cell-based; conditions: 50 nM, 5 days, vs non-targeting control
From the text: as §3, §1, §2

[4] = system: MM415RM trametinib resistant melanoma cell line; test: Cell viability assay (ATP quantitation); type: cell-based; conditions: 50 nM, 5 days, vs non-targeting control
From the text: as §3, §1, §2

VMM39 melanoma cell line = test: Cell viability assay (ATP quantitation); type: cell-based, human; conditions: 50 nM, 5 days (120 hrs), vs non-targeting control
Description: as §1, §2

[5] = system: Hs852.T primary melanoma cell line; test: Cell viability assay (ATP quantitation); type: cell-based, human; conditions: 50 nM, 5 days (120 hrs), vs non-targeting control
Description: as §1, §2

[6] = system: Sk-Mel-2 melanoma cell line; test: Cell viability assay (ATP quantitation); type: cell-based, human; conditions: 50 nM, 5 days (120 hrs), vs non-targeting control
Description: as §1, §2

[7] = system: WM1366 melanoma cell line; test: Cell viability assay (ATP quantitation); type: cell-based, human; conditions: 50 nM, 5 days (120 hrs), vs non-targeting control
Description: as §1, §2

[8] = system: WM3211 melanoma cell line; test: Cell viability assay (ATP quantitation); type: cell-based, human; conditions: 50 nM, 5 days (120 hrs), vs non-targeting control
Description: as §1, §2

[9] = system: Sk-Mel-28 melanoma cell line; test: Cell viability assay (ATP quantitation); type: cell-based, human; conditions: 50 nM, 5 days (120 hrs), vs non-targeting control
Description: as §1, §2

[10] = system: AV5 primary melanoma cell line; test: Cell viability assay (ATP quantitation); type: cell-based, human; conditions: 50 nM, 5 days (120 hrs), vs non-targeting control
Description: as §1, §2

[11] = system: WM3629 melanoma cell line; test: Cell viability assay (ATP quantitation); type: cell-based, human; conditions: 50 nM, 5 days (120 hrs), vs non-targeting control
Description: as §1, §2

[12] = system: U20S osteosarcoma cell line; test: Cell viability assay (ATP quantitation); type: cell-based; conditions: 50 nM, 5 days, vs non-targeting control
Description: as §1, §2

[13] = system: H1299 lung cancer cell line; test: Cell viability assay (ATP quantitation); type: cell-based; conditions: 50 nM, 5 days, vs non-targeting control
Description: as §1, §2

[14] = system: U87-MG Glioblastoma cell line; test: Cell viability assay (ATP quantitation); type: cell-based; conditions: 50 nM, 5 days, vs non-targeting control
Description: as §1, §2

[15] = system: H2228 lung cancer cell line; test: Cell viability assay (ATP quantitation); type: cell-based; conditions: 50 nM, 5 days, vs non-targeting control
Description: as §1, §2

AV4 melanoma cell line = test: Cell viability assay (ATP quantitation); type: cell-based; conditions: 50 nM, 5 days, vs non-targeting control
Description: as §1, §2

[16] = system: H82 lung cancer cell line; test: Cell viability assay (ATP quantitation); type: cell-based; conditions: 50 nM, 5 days, vs non-targeting control
Description: as §1, §2

[17] = system: A-172 Glioblastoma cell line; test: Cell viability assay (ATP quantitation); type: cell-based; conditions: 50 nM, 5 days, vs non-targeting control
Description: as §1, §2

[18] = system: Hs940.T melanoma cell line; test: Cell viability assay (ATP quantitation); type: cell-based; conditions: 50 nM, 5 days, vs non-targeting control
Description: as §1, §2

[19] = system: U138-MG Glioblastoma cell line; test: Cell viability assay (ATP quantitation); type: cell-based; conditions: 50 nM, 5 days, vs non-targeting control
Description: as §1, §2

MM485 melanoma cell line = test: Cell viability assay (ATP quantitation); type: cell-based; conditions: 50 nM, 5 days, vs non-targeting control
Description: as §1, §2

[20] = system: WM3060 melanoma cell line; test: Cell viability assay (ATP quantitation); type: cell-based; conditions: 50 nM, 5 days, vs non-targeting control
Description: as §1, §2

[21] = system: T98G Glioblastoma cell line; test: Cell viability assay (ATP quantitation); type: cell-based; conditions: 50 nM, 5 days, vs non-targeting control
Description: as §1, §2

[22] = system: Sk-N-AS Neuroblastoma cell line; test: Cell viability assay (ATP quantitation); type: cell-based; conditions: 50 nM, 5 days, vs non-targeting control
Description: as §1, §2

[23] = system: H929 multiple myeloma cell line; test: Cell viability assay (ATP quantitation); type: cell-based; conditions: 50 nM, 5 days, vs non-targeting control
Description: as §1, §2

[24] = system: SW1271 lung cancer cell line; test: Cell viability assay (ATP quantitation); type: cell-based; conditions: 50 nM, 5 days, vs non-targeting control
Description: as §1, §2

[25] = system: SW480 colon carcinoma cell line; test: Cell viability assay (ATP quantitation); type: cell-based; conditions: 50 nM, 5 days, vs non-targeting control
Description: as §1, §2

[26] = system: Sk-Mel-5 melanoma cell line; test: Cell viability assay (ATP quantitation); type: cell-based; conditions: 50 nM, 5 days, vs non-targeting control
Description: as §1, §2

A375 melanoma cell line = test: Cell viability assay (ATP quantitation); type: cell-based; conditions: 50 nM, 5 days, vs non-targeting control
Description: as §1, §2

[27] = system: HCT116 colon carcinoma cell line; test: Cell viability assay (ATP quantitation); type: cell-based; conditions: 50 nM, 5 days, vs non-targeting control
Description: as §1, §2

AV1 melanoma cell line = test: Cell viability assay (ATP quantitation); type: cell-based; conditions: 50 nM, 5 days, vs non-targeting control
Description: as §1, §2

[28] = system: L363 multiple myeloma cell line; test: Cell viability assay (ATP quantitation); type: cell-based; conditions: 50 nM, 5 days, vs non-targeting control
Description: as §1, §2

[29] = system: XG-1 multiple myeloma cell line; test: Cell viability assay (ATP quantitation); type: cell-based; conditions: 50 nM, 5 days, vs non-targeting control
Description: as §1, §2

[30] = system: MaMel30 melanoma cell line; test: Cell viability assay (ATP quantitation); type: cell-based; conditions: 50 nM, 5 days, vs non-targeting control
Description: as §1, §2

5′-ACAAAGAGAGACAGGAAAUUU-3′ (chain 2 AUUUCCUGUCUCUCUUUGUUU; listed as RNA, chemistry not given here) [SEQ ID NO:45]
significant cell viability decrease: cell viability decrease (RNAi screening) (melanoma cell lines) | cell viability decrease (D04 melanoma cell line) | cell viability decrease (MM415 melanoma cell line)

AAGGAGGGTAAACGCT (chemistry not given here) [SEQ ID NO: 13, Antisense oligonucleotide targeting BX470102.3-008]
significant cell viability decrease: cell viability decrease [1] | cell viability decrease [2] | cell viability decrease [3] | cell viability decrease [4] | cell viability decrease (VMM39 melanoma cell line) | cell viability decrease [5] | cell viability decrease (D04 melanoma cell line) | cell viability decrease (MM415 melanoma cell line) | cell viability decrease [6] | cell viability decrease [7] | cell viability decrease [8] | cell viability decrease [9] | cell viability decrease [10] | cell viability decrease [11] | cell viability decrease [12] | cell viability decrease [13] | cell viability decrease [14] | cell viability decrease [15] | cell viability decrease (AV4 melanoma cell line) | cell viability decrease [16] | cell viability decrease [17] | cell viability decrease [18] | cell viability decrease [19] | cell viability decrease (MM485 melanoma cell line) | cell viability decrease [20] | cell viability decrease [21] | cell viability decrease [22] | cell viability decrease [23] | cell viability decrease [24] | cell viability decrease [25] | cell viability decrease [26] | cell viability decrease (A375 melanoma cell line) | cell viability decrease [27]

ACATGGATTGGTAGTG (QIAGEN GapmeR, modification pattern not given here) [SEQ ID NO: 17, Antisense oligonucleotide targeting RP11-7011.3-001, 002 and 003]
significant cell viability decrease: cell viability decrease [1] | cell viability decrease [2] | cell viability decrease [3] | cell viability decrease [4] | cell viability decrease (VMM39 melanoma cell line) | cell viability decrease [5] | cell viability decrease (D04 melanoma cell line) | cell viability decrease (MM415 melanoma cell line) | cell viability decrease [6] | cell viability decrease [7] | cell viability decrease [8] | cell viability decrease [9] | cell viability decrease [10] | cell viability decrease [11] | cell viability decrease (AV1 melanoma cell line) | cell viability decrease [12] | cell viability decrease [14] | cell viability decrease [15] | cell viability decrease (AV4 melanoma cell line) | cell viability decrease [28] | cell viability decrease [16] | cell viability decrease [17] | cell viability decrease [19] | cell viability decrease [20] | cell viability decrease [21] | cell viability decrease [22] | cell viability decrease [23] | cell viability decrease [24] | cell viability decrease [25] | cell viability decrease [26] | cell viability decrease [29] | cell viability decrease [27] | cell viability decrease [30]
